From patent publication US4603144A, “Kojic acid ether-ester derivatives” (G. D. Searle & Co., priority 1984, dated 1986)

Target: T1, Human Leukocyte Elastase (HLE) (Homo sapiens, UniProt P08246)
T1 sequence (P08246 30-267): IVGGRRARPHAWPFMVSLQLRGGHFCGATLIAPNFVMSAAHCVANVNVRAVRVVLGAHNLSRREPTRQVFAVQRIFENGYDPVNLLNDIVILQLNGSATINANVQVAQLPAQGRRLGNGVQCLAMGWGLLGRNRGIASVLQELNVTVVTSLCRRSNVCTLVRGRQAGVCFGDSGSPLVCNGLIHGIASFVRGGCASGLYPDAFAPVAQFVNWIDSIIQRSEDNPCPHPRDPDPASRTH
Assay: Inhibition of Human Leukocyte Elastase (HLE); hydrolysis of Methoxy-succinyl-Alanyl-Alanyl-Prolyl-Valyl-nitroanilide
Type: biochemical
Details: for inhibition at 20 µM: 2.0 × 10^-5 Molar; for inhibition at 10 µM: 1.0 × 10^-5 Molar; for inhibition at 0.2 µM: 2.0 × 10^-7 Molar; for inhibition at 0.05 µM: 5.0 × 10^-8 Molar; for inhibition at 1 µM: 1.0 × 10^-6 Molar; for inhibition at 5 µM: 5.0 × 10^-6 Molar
Protocol: Inhibition of Human Leukocyte Elastase (HLE)
This test measures the rate of hydrolysis of Methoxy-succinyl-Alanyl-Alanyl-Prolyl-Valyl-nitroanilide by HLE in the presence and absence of the compound to be tested. The procedure used is as follows. The following stock solutions are prepared.
1. a saline solution of HLE prepared from a composition containing 10% HLE with the remainder being sodium acetate (300 micrograms per ml) wherein the concentration was adjusted to give a change in absorption of 0.12 od units per minute in the assay in the absence derivative,
2. a dimethylsulfoxide solution of the nitroanilide peptide (2m mole),
3. tris-HCl buffer (0.2M,pH 8.0) and
4. a dimethylsulfoxide solution of the derivative to be tested at 20 times the desired final concentration.
The test hydrolysis solution was then prepared by adding 850 microliters buffer, 50 microliters derivative solution, 50 microliters peptide solution to a 1 cm. semi-micro cuvette. The cuvette was capped, slightly shaken and placed in the light chamber of a recording colorimeter where the increase in absorption at 410 nm. due to liberated nitroaniline was measured. Using this procedure, the one minute change in absorption of the test sample containing derivative was compared to the change in absorption in the absence of derivative. A 20% or more decrease in the rate of absorption was interpreted as a positive inhibition.

Compound: CCCCCCCCCCCCCCCCCCOCc1cc(=O)c(OCc2ccccc2)co1 [Example 11, 2-[(octadecyloxy)methyl]-5-(phenylmethoxy)-4Hpyran-4-one]
- inhibition at 20 µM: 24%

Compound: CCCCCCCCCCCCCCOCc1cc(=O)c(O)co1 [Example 12, 5-hydroxy-2-[(tetradecyloxy)methyl]-4Hpyran-4-one]
- inhibition at 10 µM: 34%
- inhibition at 20 µM: 48%

Compound: CCCCCCCCCCCCCCCCOCc1cc(=O)c(O)co1 [Example 13, 5-hydroxy-2-[(hexadecyloxy)methyl]-4Hpyran-4-one]
- inhibition at 20 µM: 23%

Compound: CCCCCCCCCCCCCCCCCCOCc1cc(=O)c(O)co1 [Example 14, 5-hydroxy-2-[(octadecyloxy)methyl]-4Hpyran-4-one]
- inhibition at 10 µM: 46%
- inhibition at 20 µM: 50%

Compound: CCCCCCCCCCCCCCOCc1cc(=O)c(OC(=O)C(C)(C)C)co1 [Example 15, 4-oxo-2-[(tetradecyloxy)methyl]-4H pyran-5-yl-2,2-dimethylpropanoate]
- inhibition at 10 µM: 81%
- inhibition at 20 µM: 88%
- inhibition at 0.2 µM: 60%
- inhibition at 0.05 µM: 38%

Compound: CCCCCCCCCCCCCCCCOCc1cc(=O)c(OC(=O)C(C)(C)C)co1 [Example 16, 2-[(hexadecyloxy)methyl]-4-oxo-4H pyran-5-yl-2,2-dimethylpropanoate]
- inhibition at 10 µM: 87%
- inhibition at 1 µM: 69%
- inhibition at 20 µM: 89%
- inhibition at 0.2 µM: 52%
- inhibition at 0.05 µM: 27%

Compound: CCCCCCCCCCCCCCCCOCc1cc(=O)c(OC(=O)C(C)C)co1 [Example 17, 2-[(hexadecyloxy)methyl]-4-oxo-4H pyran-5-yl-2-methylpropanoate]
- inhibition at 1 µM: 88%
- inhibition at 0.2 µM: 81%
- inhibition at 0.05 µM: 61%

Compound: CCCCCCCCCCCCCCCCOCc1cc(=O)c(OC(=O)C(C)C(C)C)co1 (centres unmarked) [Example 18, 2-[(hexadecyloxy)methyl]-4-oxo-4H pyran-5-yl-2,3-dimethylbutanoate]
- inhibition at 10 µM: 48%
- inhibition at 20 µM: 59%

Compound: CCCCCCCCCCCCCCCCOCc1cc(=O)c(OC(=O)CC(C)C)co1 [Example 19, 2-[(hexadecyloxy)methyl]-4-oxo-4H pyran-5-yl-3-methylbutansate]
- inhibition at 10 µM: 52%
- inhibition at 20 µM: 67%

Compound: CCCCCCCCCCCCCCCCCCOCc1cc(=O)c(OC(=O)C(C)(C)C)co1 [Example 20, 2-[(octadecyloxy)methyl] -4-oxo-4Hpyran-5-yl-2,2-dimethylpropanoate]
- inhibition at 10 µM: 73%
- inhibition at 20 µM: 66%
- inhibition at 5 µM: 69%

Compound: CCCCCCCCCCCCCCCCOc1coc(COC2CCCCO2)cc1=O (centres unmarked) [Example 21, 5-Hexadecyloxy-2-tetrahydropyrany/oxymethyl-4H pyran-4-one]
- inhibition at 20 µM: 23%

Compound: CCCCCCCCCCCCCCCCOc1coc(COC(=O)C(C)(C)C)cc1=O [Example 23, 5-Hexadecyloxy-4-oxo-4Hpyran-2-hydroxymethyl-2,2-dimethylpropanoate]
- inhibition at 10 µM: 62%
- inhibition at 20 µM: 65%
- inhibition at 5 µM: 36%

Compound: CCCCCCCCCCCCCCCCOc1coc(C(=O)O)cc1=O [Example 24, 5-Hexadecyloxy-2-carboxyl-4Hpyran-4-one]
- inhibition at 10 µM: 83%
- inhibition at 20 µM: 86%
- inhibition at 5 µM: 84%
